Patent US20220288228A1, “METHODS OF CANCER TREATMENT BY DELIVERY OF siRNAs AGAINST BCLXL AND MCL1 USING A POLYPEPTIDE NANOPARTICLE” (Sirnaomics, Inc., priority 2021, published 2022)

Columns and labels:
[1] = molecular target: BCLxL (Homo sapiens, UniProt Q07817); settings: consequence of its inhibition of BCLxL; cited from earlier work
[2] = test system: FaDu H&N cancer cells; experiment: Sensitivity of FaDu cells to cisplatin with siRNAs; type: cell-based
Experimental: BCLxL and MCL1 siRNAs were mixed together in Lipofectamine RNAiMax and used to transfect FaDu H&N cancer cells. Final combined siRNA concentrations of 0.05 nM, 0.15 nM and 0.45 nM were compared with the effect of a non-silencing (NS) siRNA administered at the same concentrations. The effect of treatment with siRNAs on sensitivity to cisplatin (at 0-64 μM) also were evaluated.

Chain of BCLxL (Q07817 whole entry, species assumed): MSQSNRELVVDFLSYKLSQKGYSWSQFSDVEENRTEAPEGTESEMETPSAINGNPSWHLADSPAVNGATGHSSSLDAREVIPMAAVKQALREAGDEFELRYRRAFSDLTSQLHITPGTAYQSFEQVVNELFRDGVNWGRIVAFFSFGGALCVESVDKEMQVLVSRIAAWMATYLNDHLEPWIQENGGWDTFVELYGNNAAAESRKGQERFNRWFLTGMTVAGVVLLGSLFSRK

SMILES	thrombocytopenia [1]	amount of cisplatin required to cause 100% inhibition of the tumor cell viability ([2]; in the presence of 0.45 nM NS siRNA) [µM]	amount of cisplatin required to cause 100% inhibition of the tumor cell viability ([2]; in the presence of 0.45 nM of BCLxL/MCL1 siRNAs) [µM]
CC1(C)CCC(c2ccc(Cl)cc2)=C(CN2CCN(c3ccc(C(=O)NS(=O)(=O)c4ccc(N[C@H](CCN5CCOCC5)CSc5ccccc5)c(S(=O)(=O)C(F)(F)F)c4)cc3)CC2)C1 [ABT263]	induces thrombocytopenia	–	–
N.N.[Cl][Pt][Cl] [cisplatin]	–	~32	< 1
